{
  "source": "paper PMC3849129",
  "about": "(International journal of antimicrobial agents, 2013)",
  "key": {"Epithelial lining fluid": {"experiment": "Epithelial lining fluid", "format": "in vivo, Swiss Webster mice", "details": "for Time post dose up to which component could be quantified in ELF: mouse, in vivo"}, "[1]": {"experiment": "Serum pharmacokinetics after intravenous administration in mice", "details": "female, ND4 Swiss Webster, mouse, in vivo, 3 mg/kg"}, "[2]": {"tested_on": "Pseudomonas aeruginosa ATCC 27853 (PA 27853)", "details": "previously determined; cited from earlier work"}, "PA 9019": {"tested_on": "PA 9019", "details": "PA 9019, MDR bloodstream isolate; previously determined; cited from earlier work"}},
  "note": "Positions of bridges follow the written chain, without caps; N, C: chain ends. Non-standard residues stand in square brackets, D forms with d. Residues, ends and D or L forms follow the SMILES beside them. *: point of attachment. Heptanoyl(6-Me) = CC(C)CCCCC(=O)*; X1 = CC[C@H](C)CCCCC(=O)*; Octanoyl = CCCCCCCC(=O)*; Dab = NCC[C@H](N)C(=O)O",
  "data": [
    {"compound": "CC(C)CCCCC(=O)N[C@@H](CCN)C(=O)N[C@H](C(=O)N[C@@H](CCN)C(=O)N[C@H]1CCNC(=O)[C@H]([C@@H](C)O)NC(=O)[C@H](CCN)NC(=O)[C@H](CCN)NC(=O)[C@H](CC(C)C)NC(=O)[C@@H](Cc2ccccc2)NC(=O)[C@H](CCN)NC1=O)[C@@H](C)O", "note": "[PB2, polymyxin B2] ({Heptanoyl(6-Me)}-[Dab]T[Dab][Dab][Dab][dF]L[Dab][Dab]T; lactam 4-C)", "values": [
      {"measurement": "Time post dose up to which component could be quantified in ELF", "setting": "Epithelial lining fluid", "result": "up to 2 h"}
    ]},
    {"compound": "CC[C@H](C)CCCCC(=O)N[C@@H](CCN)C(=O)N[C@H](C(=O)N[C@@H](CCN)C(=O)N[C@H]1CCNC(=O)[C@H]([C@@H](C)O)NC(=O)[C@H](CCN)NC(=O)[C@H](CCN)NC(=O)[C@H](CC(C)C)NC(=O)[C@@H](Cc2ccccc2)NC(=O)[C@H](CCN)NC1=O)[C@@H](C)O", "note": "[PB1, polymyxin B1] (X1-[Dab]T[Dab][Dab][Dab][dF]L[Dab][Dab]T; lactam 4-C)", "values": [
      {"measurement": "AUC ratio (liposome:solution) in epithelial lining fluid", "setting": "Epithelial lining fluid; ELF AUC0–6h, i.v. ca. 3 mg/kg, mice", "result": 6.21},
      {"measurement": "half-life", "setting": "[1]", "result": 19.2, "unit": "min"}
    ]},
    {"compound": "CCCCCCCC(=O)N[C@@H](CCN)C(=O)N[C@H](C(=O)N[C@@H](CCN)C(=O)N[C@H]1CCNC(=O)[C@H]([C@@H](C)O)NC(=O)[C@H](CCN)NC(=O)[C@H](CCN)NC(=O)[C@H](CC(C)C)NC(=O)[C@@H](Cc2ccccc2)NC(=O)[C@H](CCN)NC1=O)[C@@H](C)O", "note": "[PB3, polymyxin B3] (Octanoyl-[Dab]T[Dab][Dab][Dab][dF]L[Dab][Dab]T; lactam 4-C)", "values": [
      {"measurement": "Time post dose up to which component could be quantified in ELF", "setting": "Epithelial lining fluid", "result": "up to 2 h"}
    ]},
    {"compound": "CC[C@H](C)CCCCC(=O)N[C@@H](CCN)C(=O)N[C@H](C(=O)N[C@@H](CCN)C(=O)N[C@H]1CCNC(=O)[C@H]([C@@H](C)O)NC(=O)[C@H](CCN)NC(=O)[C@H](CCN)NC(=O)[C@H]([C@@H](C)CC)NC(=O)[C@@H](Cc2ccccc2)NC(=O)[C@H](CCN)NC1=O)[C@@H](C)O", "note": "[ile-PB1, isoleucine-B1] (X1-[Dab]T[Dab][Dab][Dab][dF]I[Dab][Dab]T; lactam 4-C)", "values": [
      {"measurement": "Time post dose up to which component could be quantified in ELF", "setting": "Epithelial lining fluid", "result": "up to 2 h"}
    ]},
    {"compound": "Polymyxin B [PB]", "values": [
      {"measurement": "MIC", "setting": "[2]", "result": 2, "unit": "µg/mL"},
      {"measurement": "MIC", "setting": "PA 9019", "result": 4, "unit": "µg/mL"}
    ]}
  ]
}
